{
  "source": "patent US6887883B2",
  "about": "“Use of natural chrysanthone compounds having antiangiogenic activity” (Sigma-Tau Industrie Farmaceutiche Riunite S.p.A., priority 2000, dated 2005)",
  "format_in_all_cases": "cell-based",
  "key": {"[1]": {"tested_on": "Bovine microvascular endothelial cells (BMEC)", "assay": "Sulphorhodamine B (SRB) cytotoxicity test on BMEC", "details": "for IC50: concentration corresponding to 50% of cytotoxic activity, read-out: Cytototoxicity on BMEC IC50; for Cytototoxicity on BMEC IC0: maximum non-cytotoxic concentration", "description": "The evaluation of the intrinsic toxicity of chrysanthone A was done by comparing it with suramin using the Sulphorhodamine B (SRB) cytotoxicity test described here below.\nBovine microvascular endothelial cells (BMEC) were seeded, at a density of 3000 cells/well, on 96-well microtiter plates, in normal culture medium (200 μl/well). On the next day the study compounds were added to the wells in scalar concentrations. On the third day after seeding the medium was removed and three washings with PBS were performed. At the end of the washings, 200 μl of culture medium were added to each well and the plates were placed in an incubator at 37° C., 5% CO2 for the next 48 hours. At the end of this incubation period, the medium was removed and the cells were treated cold for 1 hour with a solution of 15% trichloroacetic acid (TCA). The wells were washed three times with distilled H2O by immersion of the plate and removal by overturning. 200 μl/well of 0.4% SRB in 1% acetic acid were added to the plates and incubated for 30 min. The wells were washed three times with 1% acetic acid, and lastly 200 μl/well of Tris 10 mM were added.\nThe staining of the well was quantified by spectrophotometric readout at a wavelength of 540 nm. Comparison of the values obtained in the wells containing the study compound and the controls made it possible to determine the IC50 and IC0 of the compound according to the invention, defined respectively as the concentration corresponding to 50% of cytotoxic activity (IC50) and the maximum non-cytotoxic concentration (IC0).\n(§1) This test was conducted using the procedure described in Example 1."}, "BMEC endothelial cells": {"tested_on": "BMEC endothelial cells", "assay": "Chemotaxis test using the Boyden chamber (BMEC migration towards bovine serum)", "text": "This test is the first screening assay for compounds with potential angiogenesis inhibiting or facilitating activity (Glaser B. M. et al, Nature, 1980; 288:483-4).\nChrysanthone A, one of the compounds to which the invention relates, was subjected to a chemotaxis test using the Boyden chamber (Werner F., Goodwin R. H. and Leonard E. J., Journal of Immunology Methods, 1980; 33:239-247).\nThe realisation of this in-vitro assay has entailed the development of techniques for the isolation and culture of bovine endothelial cells of both the aorta (BAEC) and the adrenal marrow (BMEC) as well as the identification of suitable reference compounds. One of the advantages of the use of the Boyden chamber for the chemotaxis test is the possibility of obtaining quantitative data. The Boyden chamber consists in an upper and a lower well separated by a polycarbonate filter with 8 μm pores. A solution containing the chemoattractant is placed in the lower well, while the cells are inserted in the upper well. After a period of incubation, the cells which have migrated across the filter in response to the chemotactic stimulus are counted on the undersurface of the membrane.\nIn the chemotaxis test, the chemoattractant selected was bovine serum (1% in DMEM culture medium). The BMEC endothelial cells were resuspended in DMEM with 1% bovine serum albumin (BSA) and analysed in this test for 4 hours. The chemotaxis was quantified by direct cell count under the optical microscope. The migration percentages presented in the chemotaxis table expressed as “% migration” were calculated according to the formula: (T−C/C)×100 where T=mean number (n^o) of cells migrating in the test sample, and C=mean number of cells migrating in the control.\nA control consisting of cells not treated with the study compound, migrating towards the serum, was included in every chemotaxis experiment.\nThe mean number of cells migrating refers to the readings of 5 microscopic fields/well in 4 independent chemotaxis wells per sample.\nNormally, suramin is used as the reference compound in chemotaxis tests.\nas §1"}, "MCF-7 line": {"tested_on": "MCF-7 line", "assay": "SRB cytotoxicity test on human tumour line MCF-7", "details": "MCF7, MCF-7 human tumour line"}, "LoVo line": {"tested_on": "LoVo line", "assay": "SRB cytotoxicity test on human tumour line LoVo"}, "Mes-Sa line": {"tested_on": "Mes-Sa line", "assay": "SRB cytotoxicity test on human tumour line Mes-Sa"}, "LoVo-Dx line": {"tested_on": "LoVo-Dx line", "assay": "SRB cytotoxicity test on human tumour line LoVo-Dx"}, "[2]": {"details": "Bos taurus, Endothelial cell, compound at its IC0 (chrysanthone A 0.4 μM, two independent experiments; chrysanthone C 10 μM)"}},
  "note": "Where two headings read alike, the source gives them in different places.",
  "data": [
    {"smiles": "CO[C@@H]1CC(=O)c2c(cc3c(c2O)COC(C)(O)C3)[C@@H]1O", "note": "(stereo partly drawn) [Chrysanthone C]", "values": [
      {"measurement": "IC50", "setting": "[1]; Bos taurus, Endothelial cell", "result": 35, "unit": "µM"},
      {"measurement": "Cytototoxicity on BMEC IC0", "setting": "[1]", "result": 10, "unit": "µM"},
      {"measurement": "inhibition at 10 µM", "setting": "BMEC endothelial cells; [2]", "result": 54, "unit": "%"}
    ]},
    {"smiles": "CO[C@@H]1CC(=O)c2c(cc3cc(C)ncc3c2O)[C@@H]1O", "note": "[Chrysanthone A]", "values": [
      {"measurement": "IC50", "setting": "MCF-7 line", "result": 11.6, "unit": "µM"},
      {"measurement": "IC50", "setting": "LoVo line", "result": 15.8, "unit": "µM"},
      {"measurement": "IC50", "setting": "[1]; listed as chrysanthone A", "result": 1.5, "unit": "µM"},
      {"measurement": "IC50", "setting": "[1]", "result": 35, "unit": "µM"},
      {"measurement": "Cytototoxicity on BMEC IC0", "setting": "[1]", "result": 0.4, "unit": "µM"},
      {"measurement": "IC50", "setting": "Mes-Sa line", "result": 7.8, "unit": "µM"},
      {"measurement": "inhibition at 0.4 µM", "setting": "BMEC endothelial cells; [2]", "result": 44, "unit": "%"},
      {"measurement": "inhibition of BMEC migration", "setting": "BMEC endothelial cells; compound at its IC0 (chrysanthone A 0.4 μM, two independent experiments; chrysanthone C 10 μM)", "result": "52%±2.8"},
      {"measurement": "IC50", "setting": "LoVo-Dx line", "result": 80, "unit": "µM"}
    ]},
    {"smiles": "Cc1ccc(C(=O)Nc2ccc(S(=O)(=O)O)c3cc(S(=O)(=O)O)cc(S(=O)(=O)O)c23)cc1NC(=O)c1cccc(NC(=O)Nc2cccc(C(=O)Nc3cc(C(=O)Nc4ccc(S(=O)(=O)O)c5cc(S(=O)(=O)O)cc(S(=O)(=O)O)c45)ccc3C)c2)c1", "note": "[Suramin, reference compound]", "values": [
      {"measurement": "IC50", "setting": "[1]; Bos taurus, Endothelial cell", "result": "> 500", "unit": "µM"},
      {"measurement": "Cytototoxicity on BMEC IC0", "setting": "[1]", "result": 100, "unit": "µM"},
      {"measurement": "% Migration IC0", "setting": "BMEC endothelial cells; 1% bovine serum chemoattractant, 4 hours, compound at its IC0 (concentration printed in cell), (T−C/C)×100 vs untreated control", "result": 100, "unit": "μM = −58%"}
    ]}
  ]
}
